Measurements taken from US20250041387A1, “POLYPEPTIDE SEQUENCE OF KDM6B AND APPLICATION OF KDM6B IN REGULATING AND CONTROLLING FUNCTION OF MESENCHYMAL STEM CELL” (BEIJING STOMATOLOGICAL HOSPITAL, CAPITAL MEDICAL UNIVERSITY, priority 2021, published 2025).

Legend:
[1] = system: senescent bone marrow mesenchymal stem cells; test: ALP activity of senescent BMSCs of aged mice; assay type: cell-based, C57BL/6 mice; settings: 3 days of osteogenic induction, FIG. 5B
Protocol: • (1) Osteogenic culture medium was purchased from Invitrogen, USA. • (2) Quantification of alkaline phosphatase (ALP) activity • 1) After 3 days of osteogenic induction, the culture medium was discarded, and the cells were washed with PBS twice. • 2) The cells were added with 500 μL of lysis buffer, and incubated at 37° C. for 15 minutes. • 3) The cells were scraped, transferred into a 1.5 mL EP tube, and centrifuged at 14000 rpm at 4° C. for 10 minutes. The supernatant was transferred into a new EP tube to measure the protein concentration, and the procedure was the same as that in Western blot. • 4) The capsule from the alkaline phosphatase kit (Stock substrate Sol.) was dissolved with 5 mL of distilled water under vigorous shaking, and mixed well. • 5) 50 μL of ALP buffer was added to 50 μL of Stock substrate Sol to obtain a mixture. 100 μL of the mixture was added to each well in a 96-well plate, then added with 10 μL of sample, and mixed well. A blank well without sample added was set for zero adjustment. • 6) The plate was incubated at 37° C. for 15 minutes, and the OD value was measured at 405 nm.
(§1) Result of ALP activity was calculated according to Y/incubation time/protein concentration. • (3) Alizarin red staining • 1) After two weeks of osteogenic induction, the culture medium was discarded. The cells were washed three times with PBS pre-cooled at 4° C., and fixed with 70% ethanol at 4° C. for 1 hour. • 2) The cells were washed 2 times with double distilled water, and stained with 40 mM alizarin red solution (pH 4.2) at room temperature for 10 minutes. The staining was observed by naked eyes. • 3) The cells were washed 3 times with double-distilled water. • (4) Determination of Ca^2+ concentration

WDR5 synthetic protein = WDR5 synthetic protein (Homo sapiens, UniProt P61964); test: Polypeptide microarray of KDM6B incubated with biotin-labeled WDR5; assay type: binding; settings: FIG. 3A, B; positive = optical density more than 30%
Source text: • (1) Synthesis of polypeptide chip: A polypeptide chip was designed by overlapping and synthesized according to the sequence of KDM6B protein, with a total of two arrays. • (2) Synthesis of polypeptide microarray: A matrix membrane was activated, and placed on a fully automated polypeptide chip synthesizer. A Fmoc-amino acid solution was automatically transferred to a specific position on the activated membrane according to the set procedure, to react with the membrane. The membrane was immersed sequentially into the blocking solution I and II to block side chains, and washed with dimethyl formamide (DMF). The membrane was placed in a deprotection solution to remove the Fmoc protective group at the amino-terminal, then washed with DMF, and dried with ethanol. The above steps were repeated until all polypeptide microarrays were completely synthesized. After the synthesis was completed, the protective groups of the side chains were removed with specific organic reagents. […] The control group was incubated with the blocking solution. • (6) Streptavidin-HRP incubation: The reaction reagent Streptavidin-HRP (High Sensitivity Streptavidin-HRP (prod #21133)) was diluted with the blocking solution in an ratio of 1:10000, and then the polypeptide microarray chip was incubated with 5 ml of the diluted Streptavidin-HRP under shaking at room temperature for 2 hours, and washed. • (7) Color development: ECL luminescence reagent was added, and digital imaging was performed on a Chempchemi digital imager. • (8) Scan of polypeptide microarray chip and data analysis of color spot: The colored polypeptide microarray chip was imaged at 425 nm using the Chempchemi Imaging System with 200 s exposure. The optical density of colored spots was analyzed using TotalLab image analysis software, and the optical density of each colored spot was calculated using the “Spot Edge Average” algorithm in the software, with the optical density of the surrounding background of each colored spot as a reference. […]

[2] = system: stem cells from apical papilla; test: Alizarin red staining and calcium quantification in SCAPs; assay type: cell-based, human; settings: SCAPs treated with polypeptide, 2 weeks of odontogenic induction, FIG. 8F, G
Protocol: as §1
(§2) To quantitatively determine the concentration of calcium, the cells were added with 10% cetyl pyridinium chloride for dissolution for 30 minutes at room temperature. The OD value was measured at 562 nm using a spectrophotometer, and the calcium ion concentration of the samples was calculated according to the standard curve of calcium ion concentration, with the total protein concentration as an internal reference.

[3] = system: telomerase reverse transcriptase; test: ELISA assay of telomerase reverse transcriptase in BMSCs; assay type: cell-based, human; settings: FIG. 4A
Protocol: • (1) Pre-detection preparation: A standard curve was calculated and plotted using a standard concentration gradient of 400 ng/mL, 200 ng/ml, 100 ng/ml, 50 ng/mL, 25 ng/ml, 12.5 ng/mL, 6.25 ng/mL, and 0 ng/mL. • (2) 100 μL of the standards and samples were added to each well of a 96-well plate. The plate was covered with a provided sealing film, and incubated at 37° C. for 2 hours. The name of the sample was noted on the surface of the sealing film. • (3) The sample in each well was discarded and spin-dried without washing. • (4) 100 μL of Biotin-antibody (1×) was added to each well. The plate was covered with a sealing film, and incubated at […] for 1 hour. If Biotin-antibody (1×) appeared cloudy, Biotin-antibody was warmed to room temperature and stirred gently until clear. • (5) The sample in each well was discarded. Each well was added with 200 μL of Wash Buffer using a multichannel pipette and left to stand for 2 minutes for washing. This process was repeated twice for a total of three times of washing. Complete removal of liquid at each step was critical for good performance. After the last time of washing, the Wash Buffer was discarded, and the 96-well plate was turned upside down and dried with a clean paper. • (6) 100 μL of HRP-avidin (1×) was added to each well. The 96-well microtiter plate was covered with a new sealing film and incubated at 37° C. for 1 hour. • (7) The process of discarding samples and washing in […] was repeated 5 times. • (8) 90 μL of TMB Substrate was added to each well. The plate was incubated in the dark at 37° C. for 15-30 minutes. 50 μL of Stop Solution was added to each well, and the plate was gently taped to mix solution evenly. • (9) The optical density of each well was detected at 450 nm within 5 min using a microtiter plate reader.

[4] = system: senescent bone marrow mesenchymal stem cells; test: Alizarin red staining and calcium quantification in senescent BMSCs of aged mice; assay type: cell-based, C57BL/6 mice; settings: 2 weeks of osteogenic induction, FIG. 5C, D
Protocol: as §1, §2

[5] = system: senescent mouse bone marrow mesenchymal stem cells; test: Senescence markers β-gal and P16 in senescent mouse BMSCs; assay type: cell-based

Substance | ALP activity [1] | ALP activity ([1]; listed as 114-peptide) | binding degree to WDR5 on polypeptide microarray (optical density of spots) (WDR5 synthetic protein) | mineralization capacity, quantification of calcium ion [2] | mineralization capacity, quantification of calcium ion ([2]; listed as 114 peptide) | expression of telomerase reverse transcriptase (ELISA) [3] | expression of telomerase reverse transcriptase (ELISA) ([3]; listed as 114 peptide) | mineralization capacity, quantification of calcium ion [4] | mineralization capacity, quantification of calcium ion ([4]; listed as 114 peptide) | expression of senescence markers of β-gal and P16 [5] | ALP activity ([1]; listed as 102-peptide) | mineralization capacity, quantification of calcium ion ([2]; listed as 102 peptide) | mineralization capacity, quantification of calcium ion ([4]; listed as 102 peptide)
FITC-(Acp)-ADLTISHCAADVVRAYGRKKRRQRRR [peptide 114] | promoted | 7.612 | higher binding degree | significantly higher | 1.619 | promote the expression | 0.03888 | significantly higher | 1.251 | reduce |  |  | 
FITC-(Acp)-KEKSRRVLGNLDLQSYGRKKRRQRRR [peptide 102] | promoted |  | higher binding degree | significantly higher |  | 0.02236 |  | significantly higher |  | reduce | 6.951 | 1.637 | 1.154
